Biological target: USP30 (Homo sapiens (Human), UniProt Q70CQ3)
Experiment: USP30 biochemical IC50 assay
Conditions: read-out: IC50 range; fluorescence polarisation, TAMRA labelled peptide linked to ubiquitin; 30 min pre-incubation, read after 2 hr
Method: USP30 Biochemical IC50 Assay
Dilution plates were prepared at 21 times the final concentration (2100 μM for a final concentration of 100 μM) in 50% DMSO in a 96-well polypropylene V-bottom plate (Greiner #651201). A typical 8-point dilution series to be 100, 30, 10, 3, 1, 0.3, 0.1, 0.03 μM final. Reactions were performed in duplicate in black 384 well plates (small volume, Greiner 784076) in a final reaction volume of 21 μl. Either 1 μl of 50% DMSO or diluted compound was added to the plate. USP30 was diluted in reaction buffer (40 mM Tris, pH 7.5, 0.005% Tween 20, 0.5 mg/ml BSA, 5 mM—beta-mercaptoethanol) to the equivalent of 0.05 μl/well and 10 μl of diluted USP30 was added to the compound. Enzyme and compound were incubated for 30 min at room temp. Reactions were initiated by the addition of 50 nM of TAMRA labelled peptide linked to ubiquitin via an iso-peptide bond as fluorescence polarisation substrate. Reactions were read immediately after addition of substrate and following a 2 hr incubation at room temperature. Readings were performed on a Pherastar Plus (BMG Labtech). λ Excitation 540 nm; λ Emission 590 nm.

USP30, sequence (Q70CQ3 57-517): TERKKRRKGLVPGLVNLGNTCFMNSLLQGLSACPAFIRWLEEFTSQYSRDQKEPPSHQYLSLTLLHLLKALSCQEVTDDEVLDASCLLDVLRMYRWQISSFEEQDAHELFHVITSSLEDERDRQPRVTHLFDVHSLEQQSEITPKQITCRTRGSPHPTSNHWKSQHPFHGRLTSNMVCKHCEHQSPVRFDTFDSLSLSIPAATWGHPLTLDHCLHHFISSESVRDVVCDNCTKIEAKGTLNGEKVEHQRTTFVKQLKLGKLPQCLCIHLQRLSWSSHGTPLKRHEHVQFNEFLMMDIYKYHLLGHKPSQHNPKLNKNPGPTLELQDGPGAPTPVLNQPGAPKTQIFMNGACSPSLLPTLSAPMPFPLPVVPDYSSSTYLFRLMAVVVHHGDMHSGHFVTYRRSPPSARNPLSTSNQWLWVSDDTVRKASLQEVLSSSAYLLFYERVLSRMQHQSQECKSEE

IC50	SMILES
100 to 1000 nM	N#CN1CCC(NS(=O)(=O)N2CCN(c3ccccc3)CC2)C1 (stereo not shown) [Example 60, N-(1-cyanopyrrolidin-3-yl)-4-phenylpiperazine-1-sulfonamide]
1000 to 10000 nM	N#CN1CCC(NS(=O)(=O)N2CCc3ccccc32)C1 (stereo not shown) [Example 61, N-(1-cyanopyrrolidin-3-yl)indoline-1-sulfonamide]
1000 to 10000 nM	N#CN1CC[C@@H](NS(=O)(=O)N2CCc3ccccc3C2)C1 [Example 62, (R)—N-(1-cyanopyrrolidin-3-yl)-3,4-dihydroisoquinoline-2(1H)-sulfonamide]
100 to 1000 nM	N#CN1CC[C@@H](NS(=O)(=O)N2CCc3cc(-c4ccccc4)ccc32)C1 [Example 63, (R)—N-(1-cyanopyrrolidin-3-yl)-5-phenylindoline-1-sulfonamide]
100 to 1000 nM	N#CN1CC[C@@H](NS(=O)(=O)N2CCc3c(-c4ccccc4)cccc32)C1 [Example 64, (R)—N-(1-cyanopyrrolidin-3-yl)-4-phenylindoline-1-sulfonamide]
100 to 1000 nM	COc1ccc2c(c1)CCN(S(=O)(=O)N[C@@H]1CCN(C#N)C1)C2 [Example 65, (R)—N-(1-cyanopyrrolidin-3-yl)-6-methoxy-3,4-dihydroisoquinoline-2(1H)-sulfonamide]
1000 to 10000 nM	CN1c2ccccc2N([C@@H]2CCN(C#N)C2)S1(=O)=O [Example 66, (R)-3-(3-methyl-2,2-dioxidobenzo[c][1,2,5]thiadiazol-1(3H)-yl)pyrrolidine-1-carbonitrile]
100 to 1000 nM	N#CN1CC[C@@H](N2c3ccccc3N(Cc3ccccc3)S2(=O)=O)C1 [Example 67, (R)-3-(3-benzyl-2,2-dioxidobenzo[c][1,2,5]thiadiazol-1(3H)-yl)pyrrolidine-1-carbonitrile]
1000 to 10000 nM	N#CN1CC[C@@H](N2c3ccccc3N(Cc3cccnc3)S2(=O)=O)C1 [Example 68, (R)-3-(2,2-dioxido-3-(pyridin-3-ylmethyl)benzo[c][1,2,5]thiadiazol-1(3H)-yl)pyrrolidine-1-carbonitrile]
100 to 1000 nM	N#CN1CC[C@@H](N2Cc3ccccc3N(Cc3ccccc3)S2(=O)=O)C1 [Example 69, (R)-3-(1-benzyl-2,2-dioxido-1,4-dihydro-3H-benzo[c][1,2,6]thiadiazin-3-yl)pyrrolidine-1-carbonitrile]
100 to 1000 nM	Cn1cc(-c2ccc3c(c2)NS(=O)(=O)N([C@@H]2CCN(C#N)C2)C3)cn1 [Example 71, (R)-3-(7-(1-methyl-1H-pyrazol-4-yl)-2,2-dioxido-1,4-dihydro-3H-benzo[c][1,2,6]thiadiazin-3-yl)pyrrolidine-1-carbonitrile]
100 to 1000 nM	N#CN1CC[C@@H](N2Cc3ccc(-c4ccccc4)cc3NS2(=O)=O)C1 [Example 72, (R)-3-(2,2-dioxido-7-phenyl-1,4-dihydro-3H-benzo[c][1,2,6]thiadiazin-3-yl)pyrrolidine-1-carbonitrile]
100 to 1000 nM	CN1c2cc(-c3ccccc3)ccc2CN([C@@H]2CCN(C#N)C2)S1(=O)=O [Example 73, (R)-3-(1-methyl-2,2-dioxido-7-phenyl-1,4-dihydro-3H-benzo[c][1,2,6]thiadiazin-3-yl)pyrrolidine-1-carbonitrile]
1000 to 10000 nM	N#CN1CC[C@@H](N2Cc3cc(-c4ccccc4)ccc3NS2(=O)=O)C1 [Example 75, (R)-3-(2,2-dioxido-6-phenyl-1,4-dihydro-3H-benzo[c][1,2,6]thiadiazin-3-yl)pyrrolidine-1-carbonitrile]
1000 to 10000 nM	CN(c1ccccc1)S(=O)(=O)N(C)C1CCN(C#N)C1 (stereo not shown) [Example 76, N-(1-cyanopyrrolidin-3-yl)-N,N′-dimethyl-N′-phenylsulfuric diamide]
1000 to 10000 nM	N#CN1CC[C@@H](N2Cc3cccc(N4CCOCC4)c3NS2(=O)=O)C1 [Example 77, (R)-3-(8-morpholino-2,2-dioxido-1,4-dihydro-3H-benzo[c][1,2,6]thiadiazin-3-yl)pyrrolidine-1-carbonitrile]
